{
  "source": "patent US20220031684A1",
  "about": "“PROPHYLACTIC EFFICACY OF SEROTONIN 4 RECEPTOR AGONISTS AGAINST STRESS” (THE TRUSTEES OF COLUMBIA UNIVERSITY IN THE CITY OF NEW YORK, priority 2019, published 2022)",
  "key": {"sigma 2": {"biological_target": "sigma 2 (Homo sapiens, UniProt Q5BJF2)", "sequence (Q5BJF2 whole entry)": "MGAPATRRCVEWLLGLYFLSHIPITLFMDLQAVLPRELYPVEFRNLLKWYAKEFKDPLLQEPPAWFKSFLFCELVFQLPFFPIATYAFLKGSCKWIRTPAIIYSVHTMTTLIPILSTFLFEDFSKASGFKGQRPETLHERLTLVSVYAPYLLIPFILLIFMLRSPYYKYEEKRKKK", "conditions": "cited from earlier work"}, "C57BL/6NTac mice [1]": {"system": "C57BL/6NTac mice", "test": "Elevated plus maze (EPM) in CORT model", "type": "in vivo", "conditions": "male C57BL/6NTac; Flx 18 mg/kg/day or RS-67,333 1.5 mg/kg/day for 3 weeks prior to CORT", "procedure": "This chronic CORT elevation dysregulates the hypothalamic-pituitary-adrenal axis (HPA) in a manner similar to that observed in clinical depression. The dose and duration of CORT treatment was selected based on previous studies. CORT (35 μg/ml, equivalent to about 5 mg/kg/day) dissolved in 0.45% hydroxypropyl-o-cyclodextrin (0-CD) or vehicle (VEH) (0.45% j-CD) was available ad libitum in the drinking water in opaque bottles to protect it from light. VEH- and CORT-treated water was changed every 3 days to prevent possible degradation. Contextual Fear Conditioning (CFC): A 3-shock CFC procedure was administered as previously published. Briefly, mice were placed into context A and administered 3 2-s shocks (0.75 mA) at 180 s, 240 s or 300 s following placement into context A. Mice were removed from the context 15 s following the termination of shock (at 317 s). For context retrieval, mice were placed back into context A for 300 s. Electrophysiology: Electrophysiology was conducted as previously described. Statistical Analysis: Results from data analyses are expressed as means±SEM. Alpha was set to 0.05 for all analyses. Data were analyzed using GraphPad Prism v7.0 or v8.0. For all experiments, unless otherwise noted, one- or two-way ANOVAs with repeated-measures were applied to the data as appropriate. Significant main effects and/or interactions were followed by Fisher's PLSD post hoc analysis or unpaired t-tests. Drugs: All drugs were prepared in physiological saline and all injections were administered intraperitoneally (i.p.) in volumes of 0.1 cc per […] body weight unless otherwise noted. Fluoxetine hydrochloride (Flx): Flx (BioTrend Chemicals AG, BG197, Zurich, Germany) was administered in the drinking water (18 mg/kg/day) for 3 weeks before the start of CORT. […] (R,S)-ketamine (K): (R,S)-ketamine (Ketaset III, Ketamine HCl injection, Fort Dodge Animal Health, Fort Dodge, Iowa) was administered in a single dose at 30 mg/kg of body weight 1 week before the start of CFC. […] PF-04995274: PF-04995274 (Sigma, Catalog No. 1331782-27-4, St. Louis, Mo.) was administered a single dose at 3 or 10 mg/kg of body weight 1 week before the start of CFC. PF-04995274 was dissolved in saline using an ultrasonic homogenizer (BioLogics, Model 3000, Manassas, Va.). Osmotic minipump implantation: ALZET osmotic minipumps (Model 2004, […], 28 days) were implanted subcutaneously under isoflurane anesthesia as previously described [S2]. Osmotic minipumps were rotated under the skin two to three times per week. Behavioral Assays: All experiments were approved by the Institutional Animal Care and Use Committee (IACUC) at the New York Psychiatric Institute (NYSPI). […] Videos were scored using ANY-maze behavior tracking software (Stoelting, Wood Dale, Ill.). […]"}, "C57BL/6NTac mice [2]": {"system": "C57BL/6NTac mice", "test": "Sucrose splash test (ST) in CORT model", "type": "in vivo", "conditions": "male C57BL/6NTac; Flx 18 mg/kg/day or RS-67,333 1.5 mg/kg/day for 3 weeks prior to CORT", "procedure": "(§1) This chronic CORT elevation dysregulates the hypothalamic-pituitary-adrenal axis (HPA) in a manner similar to that observed in clinical depression. The dose and duration of CORT treatment was selected based on previous studies. CORT (35 μg/ml, equivalent to about 5 mg/kg/day) dissolved in 0.45% hydroxypropyl-o-cyclodextrin (0-CD) or vehicle (VEH) (0.45% j-CD) was available ad libitum in the drinking water in opaque bottles to protect it from light. VEH- and CORT-treated water was changed every 3 days to prevent possible degradation. Contextual Fear Conditioning (CFC): A 3-shock CFC procedure was administered as previously published. Briefly, mice were placed into context A and administered 3 2-s shocks (0.75 mA) at 180 s, 240 s or 300 s following placement into context A. Mice were removed from the context 15 s following the termination of shock (at 317 s). For context retrieval, mice were placed back into context A for 300 s. Electrophysiology: Electrophysiology was conducted as previously described. Statistical Analysis: Results from data analyses are expressed as means±SEM. Alpha was set to 0.05 for all analyses. Data were analyzed using GraphPad Prism v7.0 or v8.0. For all experiments, unless otherwise noted, one- or two-way ANOVAs with repeated-measures were applied to the data as appropriate. […] Videos were scored using ANY-maze behavior tracking software (Stoelting, Wood Dale, Ill.). […]"}, "sigma 1": {"biological_target": "sigma 1 (Homo sapiens, UniProt Q99720)", "sequence (Q99720 whole entry)": "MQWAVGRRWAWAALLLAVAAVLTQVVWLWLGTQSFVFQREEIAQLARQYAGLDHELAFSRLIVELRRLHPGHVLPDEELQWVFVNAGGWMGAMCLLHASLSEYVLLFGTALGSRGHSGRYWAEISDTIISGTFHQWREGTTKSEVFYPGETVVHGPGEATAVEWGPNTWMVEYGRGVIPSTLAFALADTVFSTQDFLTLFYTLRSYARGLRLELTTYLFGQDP", "conditions": "cited from earlier work"}, "C57BL/6NTac mice [3]": {"system": "C57BL/6NTac mice", "test": "Adverse side effects of chronic administration", "type": "in vivo", "procedure": "as §1"}, "129S6/SvEv mice": {"system": "129S6/SvEv mice", "test": "3-shock contextual fear conditioning (CFC)", "type": "in vivo", "conditions": "for p value, CFC Re-exposure Average Freezing (%), Fisher's LSD: FIG. 2D", "procedure": "This chronic CORT elevation dysregulates the hypothalamic-pituitary-adrenal axis (HPA) in a manner similar to that observed in clinical depression. The dose and duration of CORT treatment was selected based on previous studies. CORT (35 μg/ml, equivalent to about 5 mg/kg/day) dissolved in 0.45% hydroxypropyl-o-cyclodextrin (0-CD) or vehicle (VEH) (0.45% j-CD) was available ad libitum in the drinking water in opaque bottles to protect it from light. VEH- and CORT-treated water was changed every 3 days to prevent possible degradation. Contextual Fear Conditioning (CFC): A 3-shock CFC procedure was administered as previously published. Briefly, mice were placed into context A and administered 3 2-s shocks (0.75 mA) at 180 s, 240 s or 300 s following placement into context A. Mice were removed from the context 15 s following the termination of shock (at 317 s). For context retrieval, mice were placed back into context A for 300 s. Electrophysiology: Electrophysiology was conducted as previously described. Statistical Analysis: Results from data analyses are expressed as means±SEM. Alpha was set to 0.05 for all analyses. Data were analyzed using GraphPad Prism v7.0 or v8.0. For all experiments, unless otherwise noted, one- or two-way ANOVAs with repeated-measures were applied to the data as appropriate. Significant main effects and/or interactions were followed by Fisher's PLSD post hoc analysis or unpaired t-tests. Drugs: All drugs were prepared in physiological saline and all injections were administered intraperitoneally (i.p.) in volumes of 0.1 cc per […] body weight unless otherwise noted. Fluoxetine hydrochloride (Flx): Flx (BioTrend Chemicals AG, BG197, Zurich, Germany) was administered in the drinking water (18 mg/kg/day) for 3 weeks before the start of CORT. […] (R,S)-ketamine (K): (R,S)-ketamine (Ketaset III, Ketamine HCl injection, Fort Dodge Animal Health, Fort Dodge, Iowa) was administered in a single dose at 30 mg/kg of body weight 1 week before the start of CFC. […] PF-04995274: PF-04995274 (Sigma, Catalog No. 1331782-27-4, St. Louis, Mo.) was administered a single dose at 3 or 10 mg/kg of body weight 1 week before the start of CFC. PF-04995274 was dissolved in saline using an ultrasonic homogenizer (BioLogics, Model 3000, Manassas, Va.). Osmotic minipump implantation: ALZET osmotic minipumps (Model 2004, […], 28 days) were implanted subcutaneously under isoflurane anesthesia as previously described [S2]. Osmotic minipumps were rotated under the skin two to three times per week. Behavioral Assays: All experiments were approved by the Institutional Animal Care and Use Committee (IACUC) at the New York Psychiatric Institute (NYSPI). Elevated Plus Maze (EPM): Testing was performed as previously described [S3]. Briefly, the maze is a plus-cross-shaped apparatus consisting of four arms, two open and two enclosed by walls, linked by a central platform at a height of 50 cm from the floor. Mice were individually placed in the center of the maze facing an open arm and were allowed to explore the maze for 5 min. The time spent in and the number of entries into the open arms was used as an anxiety index. Videos were scored using ANY-maze behavior tracking software (Stoelting, Wood Dale, Ill.). Novelty-Suppressed Feeding: The NSF is a conflict test that elicits competing motivations: the drive to eat and the fear of venturing into the center of a brightly lit arena. The latency to feed is used as an index of anxiety-like behavior, because classical anxiolytic drugs decrease this measure. The NSF test was carried out during an 8 min period as previously described [S3]. Briefly, the testing apparatus consisted of a plastic box (50×50×20 cm), the floor of which was covered with approximately 2 cm of bedding. For 129S6/SvEv experiments, mice were food restricted for 12 h. For the C57BL/6N experiments, mice were food restricted for 24 h. […]"}, "[4]": {"conditions": "FIG. 3 Acute RS67333 cohort, FIG. 3B, Fisher's PLSD"}},
  "data": [
    {"smiles": "CCCCN1CCC(CCC(=O)c2cc(Cl)c(N)cc2OC)CC1.Cl", "note": "[RS-67,333, 1-(4-amino-5-chloro-2-methoxyphenyl)-3-[1(n-butyl)-4-piperidinyl]-1-propanone HCl]", "values": [
      {"measurement": "pKi sigma 2", "setting": "sigma 2", "result": 8.0},
      {"measurement": "entries into the open arms of the EPM vs CORT+Veh", "setting": "C57BL/6NTac mice [1]", "result": "significantly more entries"},
      {"measurement": "time spent in the open arms of the EPM vs VEH+Veh", "setting": "C57BL/6NTac mice [1]", "result": "did not alter"},
      {"measurement": "grooming duration (ST) vs CORT+Veh", "setting": "C57BL/6NTac mice [2]", "result": "increased grooming duration"},
      {"measurement": "pKi sigma 1", "setting": "sigma 1", "result": 8.9},
      {"measurement": "adverse side effects", "setting": "C57BL/6NTac mice [3]", "result": "did not result in adverse side effects"},
      {"measurement": "p value, CFC Re-exposure Average Freezing (%), Fisher's LSD", "setting": "129S6/SvEv mice; RS67333 (1.5 mg/kg) vs. (second group beyond the rows shown)", "result": 0.3259},
      {"measurement": "p value, CFC Re-exposure Average Freezing (%), Fisher's LSD", "setting": "129S6/SvEv mice; RS67333 (1.5 mg/kg) vs. RS67333 (10 mg/kg)", "result": 0.8278},
      {"measurement": "p value, CFC Re-exposure Average Freezing (%), Fisher's LSD", "setting": "129S6/SvEv mice; Saline vs. RS67333 (1.5 mg/kg)", "result": 0.0185},
      {"measurement": "p value, CFC Re-exposure Average Freezing (%), Fisher's LSD", "setting": "129S6/SvEv mice; Saline vs. RS67333 (10 mg/kg)", "result": 0.0006},
      {"measurement": "p value, CFC Re-exposure Average Freezing (%), Fisher's LSD", "setting": "129S6/SvEv mice; Saline vs. RS67333 (30 mg/kg)", "result": 0.2625},
      {"measurement": "p, RS67333 (10 mg/kg) vs. RS67333 (30 mg/kg)", "setting": "129S6/SvEv mice; FIG. 2 cohort, post-hoc comparison, measurement head lies above the shown rows (block before FST)", "result": 0.3050},
      {"measurement": "p, CFC Trainging Freezing (%), RS67333 (1.5 mg/kg) vs. RS67333 (10 mg/kg)", "setting": "129S6/SvEv mice; [4]", "result": 0.3858},
      {"measurement": "p, CFC Trainging Freezing (%), Saline vs. RS67333 (1.5 mg/kg)", "setting": "129S6/SvEv mice; [4]", "result": 0.0941},
      {"measurement": "p, CFC Trainging Freezing (%), Saline vs. RS67333 (10 mg/kg)", "setting": "129S6/SvEv mice; [4]", "result": 0.0076},
      {"measurement": "p, CFC Training Freezing (min 1), RS67333 (1.5 mg/kg) vs. RS67333 (10 mg/kg)", "setting": "129S6/SvEv mice; FIG. 3 cohort, Fisher's PLSD", "result": 0.9715},
      {"measurement": "p, CFC Training Freezing (min 1), Saline vs. RS67333 (1.5 mg/kg)", "setting": "129S6/SvEv mice; FIG. 3 cohort, Fisher's PLSD", "result": 0.8847},
      {"measurement": "p, CFC Training Freezing (min 1), Saline vs. RS67333 (10 mg/kg)", "setting": "129S6/SvEv mice; FIG. 3 cohort, Fisher's PLSD", "result": 0.9054},
      {"measurement": "p, CFC Training Freezing (min 3), RS67333 (1.5 mg/kg) vs. RS67333 (10 mg/kg)", "setting": "129S6/SvEv mice; FIG. 3 cohort, Fisher's PLSD", "result": 0.8746},
      {"measurement": "p, CFC Training Freezing (min 3), Saline vs. RS67333 (1.5 mg/kg)", "setting": "129S6/SvEv mice; FIG. 3 cohort, Fisher's PLSD", "result": 0.8999},
      {"measurement": "p, CFC Training Freezing (min 3), Saline vs. RS67333 (10 mg/kg)", "setting": "129S6/SvEv mice; FIG. 3 cohort, Fisher's PLSD", "result": 0.9721},
      {"measurement": "p, CFC Training Freezing (min 4), RS67333 (1.5 mg/kg) vs. RS67333 (10 mg/kg)", "setting": "129S6/SvEv mice; FIG. 3 cohort, Fisher's PLSD", "result": 0.7882},
      {"measurement": "p, CFC Training Freezing (min 4), Saline vs. RS67333 (1.5 mg/kg)", "setting": "129S6/SvEv mice; FIG. 3 cohort, Fisher's PLSD", "result": 0.0168}
    ]}
  ]
}
